Assays:
[1] = biological target: T1, COX-2 (Homo sapiens, UniProt P35354); assay: Whole cell assay for COX-2 using CHO transfected cell line (CHO [hCOX-2]); assay type: cell-based; set-up: expressed in transfected cells; host or cells: Chinese hamster ovary (CHO) cells, stably transfected, CHO[hCOX-2]; settings: CHO[hCOX-2] cells, 10 μM AA; read-out: CHO Cox-2 (IC50, inhibition of PGE2 production)
T1 sequence (P35354 18-604): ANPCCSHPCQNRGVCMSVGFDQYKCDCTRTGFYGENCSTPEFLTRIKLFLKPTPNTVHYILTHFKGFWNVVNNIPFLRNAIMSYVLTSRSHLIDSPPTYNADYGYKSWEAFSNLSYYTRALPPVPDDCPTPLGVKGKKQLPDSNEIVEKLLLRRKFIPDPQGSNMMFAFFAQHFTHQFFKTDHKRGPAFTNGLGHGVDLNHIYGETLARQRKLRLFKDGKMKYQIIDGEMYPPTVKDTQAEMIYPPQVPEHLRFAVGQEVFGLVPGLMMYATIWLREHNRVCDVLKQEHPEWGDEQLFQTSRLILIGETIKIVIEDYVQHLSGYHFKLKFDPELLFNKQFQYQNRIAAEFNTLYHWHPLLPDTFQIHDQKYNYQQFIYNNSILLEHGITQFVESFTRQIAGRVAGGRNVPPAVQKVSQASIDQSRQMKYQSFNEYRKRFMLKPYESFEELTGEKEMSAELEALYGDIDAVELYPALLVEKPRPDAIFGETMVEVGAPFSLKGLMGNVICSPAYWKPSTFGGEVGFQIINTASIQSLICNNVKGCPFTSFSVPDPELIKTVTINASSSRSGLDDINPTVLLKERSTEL
From the text: Whole cell assays for COX-2 and COX-1 using CHO transfected cell lines
Chinese hamster ovary (CHO) cell lines which have been stably transfected with an eukaryotic expression vector pCDNAIII containing either the human COX-1 or COX-2 cDNA's are used for the assay. These cell lines are referred to as CHO [hCOX-1] and CHO [hCOX-2], respectively. For cyclooxygenase assays, CHO[hCOX-1] cells from suspension cultures and CHO[hCOX-2] cells prepared by trypsinization of adherent cultures are harvested by centrifugation (300 x g, 10 min) and washed once in HBSS containing 15 mM HEPES, pH 7.4, and resuspended in HBSS, 15 mM HEPES, pH 7.4, at a cell concentration of 1.5×10^6 cells/ml. Drugs to be tested are dissolved in DMSO to 66.7-fold the highest test drug concentration. Compounds are typically tested at 8 concentrations in duplicate using serial 3-fold serial dilutions in DMSO of the highest drug concentration. Cells (0.3×10^6 cells in 200 μl) are preincubated with 3 μl of the test drug or DMSO vehicle for 15 min at 37° C. Working solutions of peroxide-free AA (5.5 μM and 110 μM AA for the CHO [hCOX-1] and CHO [COX-2] assays, respectively) are prepared by a 10-fold dilution of a concentrated AA solution in ethanol into HBSS containing 15 mM HEPES, pH 7.4. Cells are then challenged in the presence or absence of drug with the AA/HBSS solution to yield a final concentration of 0.5 μM AA in the CHO[hCOX-1] assay and a final concentration of 10 μM AA in the CHO[hCOX-2] assay. The reaction is terminated by the addition of 10 μl 1 N HCl followed by neutralization with 20 μl of 0.5 N NaOH. The samples are centrifuged at 300 x g at 4° C. for 10 min, and an aliquot of the clarified supernatant is appropriately diluted for the determination of PGE2 levels using an enzyme-linked immunoassay for PGE2 (Correlate PGE2 enzyme immunoassay kit, Assay Designs, Inc.). Cyclooxygenase activity in the absence of test compounds is determined as the difference in PGE2 levels of cells challenged with arachidonic acid versus the PGE2 levels in cells mock-challenged with ethanol vehicle. Inhibition of PGE2 synthesis by test compounds is calculated as a percentage of the activity in the presence of drug versus the activity in the positive control samples.
(§1) Compounds of the present invention are inhibitors of COX-2 and are thereby useful in the treatment of COX-2 mediated diseases as enumerated above. The activities of the compounds against cyclooxygenase may be seen in the representative results shown below. In the assay, inhibition is determined by measuring the amount of prostaglandin E2 (PGE2) synthesized in the presence of arachidonic acid, COX-1 or COX-2 and a putative inhibitor. The IC50 values represent the concentration of putative inhibitor required to lower PGE2 synthesis to 50% of that obtained as compared to the uninhibited control.

[2] = biological target: COX-1 (Homo sapiens, UniProt P23219); assay: Assay of COX-1 activity from U937 cell microsomes; assay type: biochemical; set-up: Assay of COX-1 Activity from U937 cell microsomes; endogenous in cells; host or cells: U937 cells, 100,000 x g microsomal fraction; settings: read-out: U937 Cox-1 (IC50, inhibition of PGE2 production)
Procedure: Assay of COX-1 Activity from U937 cell microsomes
U 937 cells are pelleted by centrifugation at 500 x g for 5 min and washed once with phosphate-buffered saline and repelleted. Cells are resuspended in homogenization buffer consisting of 0.1 M Tris-HCl, pH 7.4, 10 mM EDTA, 2 μg/ml leupeptin, 2 μg/ml soybean trypsin inhibitor, 2 μg/ml aprotinin and 1 mM phenyl methyl sulfonyl fluoride. The cell suspension is sonicated 4 times for 10 sec and is centrifuged at 10,000 x g for 10 min at 4° C. The supernatant is centrifuged at 100,000 x g for 1 hr at 4° C. The 100,000 x g microsomal pellet is resuspended in 0.1 M Tris-HCl, pH 7.4, 10 mM EDTA to approximately 7 mg protein/mil and stored at -80° C.
Microsomal preparations are thawed immediately prior to use, subjected to a brief sonication, and then diluted to a protein concentration of 125 μg/ml in 0.1 M Tris-HCl buffer, pH 7.4 containing 10 mM EDTA, 0.5 mM phenol, 1 mM reduced glutathione and 1 μM hematin. Assays are performed in duplicate in a final volume of 250 μl. Initially, 5 μl of DMSO vehicle or drug in DMSO are added to 20 μl of 0.1 M Tris-HCl buffer, pH 7.4 containing 10 mM EDTA in wells of a 96-deepwell polypropylene titre plate. 200 μl of the microsomal preparation are then added and pre-incubated for 15 min at room temperature before addition of 25 μl of […] arachidonic acid in […] Tris-HCl and 10 mM EDTA, pH 7.4. Samples are incubated for 40 min at room temperature and the reaction is stopped by the addition of 25 μl of 1 N HCl. Samples are neutralized with 25 μl of 1 N NaOH prior to quantitation of PGE2 content by radioimmunoassay (Dupont-NEN or Amersham assay kits). Cyclooxygenase activity is defined as the difference between PGE2 levels in samples incubated in the presence of arachidonic acid and ethanol vehicle.
as §1

COX-1, sequence (P23219 24-599): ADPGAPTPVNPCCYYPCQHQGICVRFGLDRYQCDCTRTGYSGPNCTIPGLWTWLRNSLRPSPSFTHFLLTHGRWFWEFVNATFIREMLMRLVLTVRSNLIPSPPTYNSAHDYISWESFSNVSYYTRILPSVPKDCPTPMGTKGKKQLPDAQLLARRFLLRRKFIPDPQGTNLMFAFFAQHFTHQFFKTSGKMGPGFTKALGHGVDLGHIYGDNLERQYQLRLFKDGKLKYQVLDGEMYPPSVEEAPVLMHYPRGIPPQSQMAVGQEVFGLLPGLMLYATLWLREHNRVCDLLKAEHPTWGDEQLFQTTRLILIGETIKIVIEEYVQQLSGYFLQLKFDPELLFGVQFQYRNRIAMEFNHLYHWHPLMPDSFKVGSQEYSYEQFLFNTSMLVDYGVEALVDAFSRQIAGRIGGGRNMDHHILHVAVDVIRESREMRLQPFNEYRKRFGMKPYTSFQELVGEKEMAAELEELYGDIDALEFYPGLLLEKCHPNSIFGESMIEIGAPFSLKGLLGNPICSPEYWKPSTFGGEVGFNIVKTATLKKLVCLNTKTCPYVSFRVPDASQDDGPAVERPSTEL

IC50 [1] | IC50 [2] | SMILES
0.042 µM | 5.8 µM | CC1(C)OC(=O)C(c2ccc(F)cc2)=C1c1ccc(S(C)(=O)=O)cc1 [Compound T3-1, 3-(4-fluorophenyl)-5,5-dimethyl-4-[4-(methylsulfonyl)phenyl]-2,5-dihydro-2-furanone, reference compound]
0.022 µM | 7.4 µM | CCC1(C)OC(=O)C(c2ccc(F)cc2)=C1c1ccc(S(C)(=O)=O)cc1 (stereo not shown) [c, 5-ethyl-3-(4-fluorophenyl)-5-methyl-4-[4-(methylsulfonyl)phenyl]-2,5-dihydro-2-furanone]
0.057 µM | 3.2 µM | CC[C@]1(C)OC(=O)C(c2ccc(F)cc2)=C1c1ccc(S(C)(=O)=O)cc1 [d, (5S)-5-ethyl-3-(4-fluorophenyl)-5-methyl-4-[4-(methylsulfonyl)phenyl]-2,5-dihydro-2-furanone]
0.02 µM | 6.2 µM | CC[C@@]1(C)OC(=O)C(c2ccc(F)cc2)=C1c1ccc(S(C)(=O)=O)cc1 [e, (5R)-5-ethyl-3-(4-fluorophenyl)-5-methyl-4-[4-(methylsulfonyl)phenyl]-2,5-dihydro-2-furanone]
0.051 µM | 24.8 µM | CC[C@@]1(C)OC(=O)C(c2ccc(F)c(F)c2)=C1c1ccc(S(C)(=O)=O)cc1 [h, (5R)-3-(3,4-difluorophenyl)-5-ethyl-5-methyl-4-[4-(methylsulfonyl)phenyl] -2,5-dihydro-2-furanone]
0.042 µM | 13.4 µM | CC[C@]1(C)OC(=O)C(c2ccc(F)c(F)c2)=C1c1ccc(S(C)(=O)=O)cc1 [i, (5S)-3-(3,4-difluorophenyl)-5-ethyl-5-methyl-4-[4-(methylsulfonyl)phenyl] -2,5-dihydro-2-furanone]
0.194 µM | > 10 µM | CCCC1(C)OC(=O)C(c2ccc(F)cc2)=C1c1ccc(S(C)(=O)=O)cc1 (stereo not shown) [n, 3-(4-fluorophenyl)-5-methyl-4-[4-(methylsulfonyl)phenyl]-5-propyl-2,5-dihydro-2-furanone]
0.692 µM | > 10 µM | CCCC1(C)OC(=O)C(c2cccc(F)c2)=C1c1ccc(S(C)(=O)=O)cc1 (stereo not shown) [o, 3-(3-fluorophenyl)-5-methyl-4-[4-(methylsulfonyl)phenyl]-5-propyl-2,5-dihydro-2-furanone]
0.237 µM | > 10 µM | CCCC1(C)OC(=O)C(c2ccc(F)c(F)c2)=C1c1ccc(S(C)(=O)=O)cc1 (stereo not shown) [p, 3-(3,4-difluorophenyl)-5-methyl-4-[4-(methylsulfonyl)phenyl]-5-propyl-2,5-dihydro-2-furanone]
> 5 µM | > 10 µM | CCC1(CC)OC(=O)C(c2ccccc2)=C1c1ccc(S(C)(=O)=O)cc1 [t, 5,5-diethyl-4-[4-(methylsulfonyl)phenyl]-3-phenyl-2,5-dihydro-2-furanone, reference compound]
> 5 µM | > 10 µM | CCC1(CC)OC(=O)C(c2ccc(F)cc2)=C1c1ccc(S(C)(=O)=O)cc1 [u, 5,5-diethyl-3-(4-fluorophenyl)-4-[4-(methylsulfonyl)phenyl]-2,5-dihydro-2-furanone, reference compound]

— patent US6133292A, “Diaryl-5-alkyl-5-methyl-2-(5H)-furanones as selective cyclooxygenase-2-inhibitors” (Merck Frosst Canada & Co., priority 1998, dated 2000)
